Assay results reported in patent publication US12077503B2, “Substituted cyclic amides and their use as herbicides” (FMC CORPORATION, priority 2015, dated 2024).

How the values were obtained:
Format in all cases: in vivo
[1] = system: ryegrass, Italian (Italian ryegrass, Lolium multiflorum); test: Test A postemergence; conditions: Lolium multiflorum, post-emergence, 240 h, Postemergence
Outline: (§1)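 Compounds were formulated in a non-phytotoxic solvent mixture with surfactant and applied as a preemergence directed soil spray after seeding, or sprayed postemergence over plants 2 to 10 cm tall at the one- to two-leaf stage. Evaluation after about 10 d compared treated with untreated controls, using a scale from 0 (no effect) to 100 (complete control).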

[2] = system: blackgrass (Alopecurus myosuroides); test: Test A postemergence; conditions: Alopecurus myosuroides, post-emergence, 240 h, Postemergence
Outline: as §1

[3] = system: ragweed (common ragweed, Ambrosia elatior); test: Test A postemergence; conditions: Ambrosia artemisiifolia, post-emergence, 240 h, Postemergence
Outline: as §1

Kochia (Kochia scoparia) [4] = test: Test A postemergence; conditions: Bassia scoparia, post-emergence, 240 h, Postemergence
Outline: as §1

[5] = system: wheat (Triticum aestivum); test: Test A postemergence; conditions: Triticum aestivum, post-emergence, 240 h, Postemergence
Outline: as §1

[6] = system: pigweed (Amaranthus retroflexus); test: Test A postemergence; conditions: Amaranthus retroflexus, post-emergence, 240 h, Postemergence
Outline: as §1

corn (Zea mays) = test: Test A postemergence; conditions: Zea mays, post-emergence, 240 h, Postemergence
Outline: as §1

[7] = system: Galium (catchweed bedstraw, Galium aparine); test: Test A postemergence; conditions: Galium, post-emergence, 240 h, Postemergence
Outline: as §1

[8] = system: barnyardgrass (Echinochloa crus-galli); test: Test A postemergence; conditions: Echinochloa crus-galli, post-emergence, 240 h, Postemergence
Outline: as §1

[9] = system: giant foxtail (Setaria faberii); test: Test A postemergence; conditions: Setaria faberi, post-emergence, 240 h, Postemergence
Outline: as §1

[10] = system: ryegrass, Italian (Italian ryegrass, Lolium multiflorum); test: Test A preemergence; conditions: Lolium multiflorum, pre-emergence, 240 h, 0 to 100 scale (0 no effect, 100 complete control), read-out: Plant response rating, Ryegrass, Italian
Outline: as §1

[11] = system: ragweed (common ragweed, Ambrosia elatior); test: Test A preemergence; conditions: Ambrosia artemisiifolia, pre-emergence, 240 h, 0 to 100 scale (0 no effect, 100 complete control), read-out: Plant response rating, Ragweed
Outline: as §1

Kochia (Kochia scoparia) [12] = test: Test A preemergence; conditions: Bassia scoparia, pre-emergence, 240 h, 0 to 100 scale (0 no effect, 100 complete control), read-out: Plant response rating, Kochia
Outline: as §1

[13] = system: pigweed (Amaranthus retroflexus); test: Test A preemergence; conditions: Amaranthus retroflexus, pre-emergence, 240 h, 0 to 100 scale (0 no effect, 100 complete control), read-out: Plant response rating, Pigweed
[14] = system: barnyardgrass (Echinochloa crus-galli); test: Test A preemergence; conditions: Echinochloa crus-galli, pre-emergence, 240 h, 0 to 100 scale (0 no effect, 100 complete control), read-out: Plant response rating, Barnyardgrass
Outline: as §1

[15] = system: giant foxtail (Setaria faberii); test: Test A preemergence; conditions: Setaria faberi, pre-emergence, 240 h, 0 to 100 scale (0 no effect, 100 complete control), read-out: Plant response rating, Foxtail, Giant
Outline: as §1

O=C1NC[C@H](c2cncs2)[C@H]1C(=O)Nc1cccc(F)c1F [Compound 1336]
0%: pest or weed control at 125 g/ha ([1]; 125 g ai/ha, visual rating about 10 d after treatment, read-out: Ryegrass, Italian plant response rating (0 to 100 scale)) | pest or weed control at 500 g/ha ([1]; 500 g ai/ha, visual injury, 0 to 100 scale (0 no effect, 100 complete control), approx. 10 d, read-out: Plant response rating, Ryegrass, Italian) | pest or weed control at 125 g/ha ([2]; 125 g ai/ha, visual rating about 10 d after treatment, read-out: Blackgrass plant response rating (0 to 100 scale)) | pest or weed control at 500 g/ha ([2]; 500 g ai/ha, visual injury, 0 to 100 scale (0 no effect, 100 complete control), approx. 10 d, read-out: Plant response rating, Blackgrass) | pest or weed control at 125 g/ha ([3]; 125 g ai/ha, visual rating about 10 d after treatment, read-out: Ragweed plant response rating (0 to 100 scale)) | pest or weed control at 500 g/ha ([3]; 500 g ai/ha, visual injury, 0 to 100 scale (0 no effect, 100 complete control), approx. 10 d, read-out: Plant response rating, Ragweed) | pest or weed control at 125 g/ha (Kochia (Kochia scoparia) [4]; 125 g ai/ha, visual rating about 10 d after treatment, read-out: Kochia plant response rating (0 to 100 scale)) | pest or weed control at 500 g/ha (Kochia (Kochia scoparia) [4]; 500 g ai/ha, visual injury, 0 to 100 scale (0 no effect, 100 complete control), approx. 10 d, read-out: Plant response rating, Kochia) | plant injury at 125 g/ha ([5]; 125 g ai/ha, visual rating about 10 d after treatment, read-out: Wheat plant response rating (0 to 100 scale)) | plant injury at 500 g/ha ([5]; 500 g ai/ha, visual injury, 0 to 100 scale (0 no effect, 100 complete control), approx. 10 d, read-out: Plant response rating, Wheat) | pest or weed control at 125 g/ha ([6]; 125 g ai/ha, visual rating about 10 d after treatment, read-out: Pigweed plant response rating (0 to 100 scale)) | pest or weed control at 500 g/ha ([6]; 500 g ai/ha, visual injury, 0 to 100 scale (0 no effect, 100 complete control), approx. 10 d, read-out: Plant response rating, Pigweed) | plant injury at 125 g/ha (corn (Zea mays); 125 g ai/ha, visual rating about 10 d after treatment, read-out: Corn plant response rating (0 to 100 scale)) | Corn plant response rating (crop injury, 0 = no effect, 100 = complete kill) at 500 g/ha (corn (Zea mays); 500 g ai/ha, visual injury, 0 to 100 scale (0 no effect, 100 complete control), approx. 10 d) | pest or weed control at 125 g/ha ([7]; 125 g ai/ha, visual rating about 10 d after treatment, read-out: Galium plant response rating (0 to 100 scale)) | pest or weed control at 500 g/ha ([7]; 500 g ai/ha, visual injury, 0 to 100 scale (0 no effect, 100 complete control), approx. 10 d, read-out: Plant response rating, Galium) | pest or weed control at 125 g/ha ([8]; 125 g ai/ha, visual rating about 10 d after treatment, read-out: Barnyardgrass plant response rating (0 to 100 scale, 0 no effect, 100 complete control)) | pest or weed control at 500 g/ha ([8]; 500 g ai/ha, visual injury, 0 to 100 scale (0 no effect, 100 complete control), approx. 10 d, read-out: Plant response rating, Barnyardgrass) | pest or weed control at 125 g/ha ([9]; 125 g ai/ha, visual rating about 10 d after treatment, read-out: Foxtail, Giant plant response rating (0 to 100 scale)) | pest or weed control at 500 g/ha ([9]; 500 g ai/ha, visual injury, 0 to 100 scale (0 no effect, 100 complete control), approx. 10 d, read-out: Plant response rating, Foxtail, Giant) | pest or weed control at 500 g/ha ([10]; 500 g ai/ha, preemergence) | pest or weed control at 125 g/ha ([10]; Preemergence, 125 g ai/ha) | pest or weed control at 500 g/ha ([11]; 500 g ai/ha, preemergence) | pest or weed control at 125 g/ha ([11]; Preemergence, 125 g ai/ha) | pest or weed control at 500 g/ha (Kochia (Kochia scoparia) [12]; 500 g ai/ha, preemergence) | pest or weed control at 125 g/ha (Kochia (Kochia scoparia) [12]; Preemergence, 125 g ai/ha) | pest or weed control at 500 g/ha ([13]; 500 g ai/ha, preemergence) | pest or weed control at 125 g/ha ([13]; Preemergence, 125 g ai/ha) | pest or weed control at 500 g/ha ([14]; 500 g ai/ha, preemergence) | pest or weed control at 125 g/ha ([14]; Preemergence, 125 g ai/ha) | pest or weed control at 500 g/ha ([15]; 500 g ai/ha, preemergence) | pest or weed control at 125 g/ha ([15]; Preemergence, 125 g ai/ha)
